According to PMC10447463, “Data-mining unveils structure–property–activity correlation of viral infectivity enhancing self-assembling peptides” (Nature Communications, 2023):
Read-outs that look alike come from different tables or passages of the source.

How the values were obtained:
[1] = format: physicochemical; set-up: key to Fibril / Fibril Formation / TEM 2cat / Fibril: 1 = fibrils present; 0 non-fibrillar structures; settings: for Fibril / Fibril / Fibril Formation: TEM; for Fibril / Fibril Formation: 1 mg/mL, uranyl acetate stain, qualitative
[2] = format: physicochemical; settings: for ThT Cat. / ThT-Fluorescence (categorical): ThT-active if fluorescence at least twice the control; for Rel. ThT: n-fold ThT fluorescence vs control (PBS, 10% DMSO), 4 µL 1 mg/mL fibrils + 20 µL 50 µM ThT, 15 min RT, ex 440 / em 488 nm, triplicate
Method in brief: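 Fibrils (1 mg/mL solution) were mixed with 50 µM ThT in PBS for 15 min at RT, and fluorescence was read at λex 440/λem 488 nm against a PBS blank, as a triplicate mean ± SD. Zeta potential came from electrophoretic mobility (Smoluchowski) after 1 d aggregation at 1 mg/mL in PBS pH 7.4, diluted into 1 mM KCl.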

[3] = Fig S10 panel D, fibril category by TEM
[4] = FigS12 panel A, fibril category by TEM
[5] = 1 = fibrils present, 0 = non-fibrillar
[6] = 1 = fibrils present, 0 = non-fibrillar structures
[7] = ThT fluorescence category, 1 if Rel. ThT >2
[8] = category: fibrils present or non-fibrillar

Row | Substance | TEM 2cat [1, 3] | TEM 2cat [1, 4] | Fibril ([1]; FigS12 panel B) | Fibril / Fibril Formation [1] | Fibril [1, 5] | Fibril [1, 6] | Tht category (> 2 to blank = +) ([2]; Fig S10 panel D) | Tht category (> 2 to blank = +) ([2]; FigS12 panel A) | ThT Cat, ([2]; FigS12 panel B) | ThT Cat, ([2]; ThT category, 1 if Rel. ThT >2) | ThT Cat. [2, 7] | ThT Cat. / ThT-Fluorescence (categorical) [2] | TEM 2cat [1, 8] | TEM 2cat ([1]; Fig S10 panel D) | ThT Cat. ([2]; ThT category, 1 if Rel. ThT >2) | Rel. ThT [2]
1 | KFKFEFEF | 1 | 1 | 1 | 1 | 1 | 1 | 1 (ThT. Cat is 1, if Rel. ThT >2) | 1 (ThT. Cat is 1, if Rel. ThT >2) | 1 (ThT. Cat is 1, if Rel. ThT >2) | 1 (ThT. Cat is 1, if Rel. ThT >2) | 1 (ThT. Cat is 1, if Rel. ThT >2) | 1 (ThT. Cat is 1, if Rel. ThT >2) | – | – | – | –
2 | KFKFQFF | 1 | – | – | 1 | 1 | 1 | 1 (ThT. Cat is 1, if Rel. ThT >2) | – | – | 1 (ThT. Cat is 1, if Rel. ThT >2) | 1 (ThT. Cat is 1, if Rel. ThT >2) | 1 (ThT. Cat is 1, if Rel. ThT >2) | 1 | – | – | –
3 | KFKFQFN | – | 1 | 1 | 1 | 1 | 1 | 0 (ThT-inactive (N-Fold <2)) | 0 (ThT-inactive (N-Fold <2)) | 0 (ThT-inactive (N-Fold <2)) | 0 (ThT-inactive (N-Fold <2)) | – | 0 (ThT-inactive (N-Fold <2)) | – | 1 | 0 (ThT-inactive (N-Fold <2)) | 1.1
4 | KFKFQFW | 1 | – | – | 1 | 1 | 1 | 1 (ThT. Cat is 1, if Rel. ThT >2) | – | – | 1 (ThT. Cat is 1, if Rel. ThT >2) | – | 1 (ThT. Cat is 1, if Rel. ThT >2) | 1 | – | 1 (ThT. Cat is 1, if Rel. ThT >2) | –
5 | KFKQFFINMWQ | 1 | – | – | 1 | 1 | 1 | 0 (ThT-inactive (N-Fold <2)) | – | – | 0 (ThT-inactive (N-Fold <2)) | – | 0 (ThT-inactive (N-Fold <2)) | 1 | – | 0 (ThT-inactive (N-Fold <2)) | –
6 | KIEIQINM | 1 | 1 | 1 | 1 | 1 | 1 | 0 (ThT-inactive (N-Fold <2)) | 0 (ThT-inactive (N-Fold <2)) | 0 (ThT-inactive (N-Fold <2)) | 0 (ThT-inactive (N-Fold <2)) | 0 (ThT-inactive (N-Fold <2)) | 0 (ThT-inactive (N-Fold <2)) | – | – | – | –
7 | KIKIKIKI | 0 | 0 | 0 | 0 | 0 | 0 | 1 (ThT. Cat is 1, if Rel. ThT >2) | 1 (ThT. Cat is 1, if Rel. ThT >2) | 1 (ThT. Cat is 1, if Rel. ThT >2) | 1 (ThT. Cat is 1, if Rel. ThT >2) | 1 (ThT. Cat is 1, if Rel. ThT >2) | 1 (ThT. Cat is 1, if Rel. ThT >2) | – | – | – | –
8 | KIKIKIKIWWWW | 0 | – | – | 0 | 0 | 0 | 1 (ThT. Cat is 1, if Rel. ThT >2) | – | – | 1 (ThT. Cat is 1, if Rel. ThT >2) | 1 (ThT. Cat is 1, if Rel. ThT >2) | 1 (ThT. Cat is 1, if Rel. ThT >2) | 0 | – | – | –
9 | KIKIKIQINMWQ | 1 | – | – | 1 | 1 | 1 | 0 (ThT-inactive (N-Fold <2)) | – | – | 0 (ThT-inactive (N-Fold <2)) | – | 0 (ThT-inactive (N-Fold <2)) | 1 | – | 0 (ThT-inactive (N-Fold <2)) | –
10 | KIKIQII | 1 | 1 | 1 | 1 | 1 | 1 | 0 (ThT-inactive (N-Fold <2)) | 0 (ThT-inactive (N-Fold <2)) | 0 (ThT-inactive (N-Fold <2)) | 0 (ThT-inactive (N-Fold <2)) | 0 (ThT-inactive (N-Fold <2)) | 0 (ThT-inactive (N-Fold <2)) | – | – | – | –
11 | KIKIQIMQWN | 1 | – | – | 1 | 1 | 1 | 0 (ThT-inactive (N-Fold <2)) | – | – | 0 (ThT-inactive (N-Fold <2)) | – | 0 (ThT-inactive (N-Fold <2)) | 1 | – | 0 (ThT-inactive (N-Fold <2)) | –
12 | KIKIQIMWNQ | 1 | – | – | 1 | 1 | 1 | 0 (ThT-inactive (N-Fold <2)) | – | – | 0 (ThT-inactive (N-Fold <2)) | – | 0 (ThT-inactive (N-Fold <2)) | 1 | – | 0 (ThT-inactive (N-Fold <2)) | –
13 | KIKIQINMWQRGD | 0 | 0 | 0 | 0 | 0 | 0 | 0 (ThT-inactive (N-Fold <2)) | 0 (ThT-inactive (N-Fold <2)) | 0 (ThT-inactive (N-Fold <2)) | 0 (ThT-inactive (N-Fold <2)) | – | 0 (ThT-inactive (N-Fold <2)) | – | – | 0 (ThT-inactive (N-Fold <2)) | 1.5
14 | KIKIQINMWWQ | 0 | – | – | 0 | 0 | 0 | 0 (ThT-inactive (N-Fold <2)) | – | – | 0 (ThT-inactive (N-Fold <2)) | – | 0 (ThT-inactive (N-Fold <2)) | 0 | – | 0 (ThT-inactive (N-Fold <2)) | –
15 | KIKIQINMWWWQ | 0 | – | – | 0 | 0 | 0 | 0 (ThT-inactive (N-Fold <2)) | – | – | 0 (ThT-inactive (N-Fold <2)) | – | 0 (ThT-inactive (N-Fold <2)) | 0 | – | 0 (ThT-inactive (N-Fold <2)) | –
16 | KIKIQIRGD | 1 | 1 | 1 | 1 | 1 | 1 | 1 (ThT. Cat is 1, if Rel. ThT >2) | 1 (ThT. Cat is 1, if Rel. ThT >2) | 1 (ThT. Cat is 1, if Rel. ThT >2) | 1 (ThT. Cat is 1, if Rel. ThT >2) | 1 (ThT. Cat is 1, if Rel. ThT >2) | 1 (ThT. Cat is 1, if Rel. ThT >2) | – | – | – | –
